Publication PMC11025081, “Design, Synthesis, and In Silico and In Vitro Cytotoxic Activities of Novel Isoniazid–Hydrazone Analogues Linked to Fluorinated Sulfonate Esters” (ACS Omega, 2024)

Key:
[1] = tested on: human prostate cancer cells (PC3); test: MTT cytotoxic activity assay, PC3 cells, 72 h; assay type: cell-based
Description: (§1) Cancer treatment often damages healthy cells and tissues. Every treatment has important and diverse side effects; these depend mainly on the type and extent of treatment, are not the same for everyone, and may even vary from one treatment to another in the same person. While most cancer patients receiving chemotherapy lose hair during the treatment process, other side effects vary depending on the type of drug. Therefore, the discovery of new drugs with side effects lower than those of the chemotherapeutic agents used in treatment has become an important focus of cancer research. In the present study, the cytotoxic activities of new compounds (1–18) and cisplatin were tested in prostate and colon cancer cell lines and healthy embryonic kidney cell line for 72 h.
(§2) The PC3 and DLD-1 cell lines were purchased from the American Type Culture Collection. The PC3, DLD-1, and HEK-293T cells were seeded in 96-well plates at a density of 5 × 10^3 cells/well for cytotoxic activity studies.[36]−[38] Cells were exposed to compounds at concentrations of 300, 150, 75, and 37.5 μM after 24 h. The 50 μL (5 mg/mL) amount of MTT stock solution was added to wells after 72 h and incubated for a further 2 h. The absorbance values were measured by using an Epoch 2 ELISA plate reader at 590 nm.

[2] = tested on: human colon cancer cells (DLD-1); test: MTT cytotoxic activity assay, DLD-1 cells, 72 h; assay type: cell-based; details: DLD-1 cell line
Description: as §1, §2

[3] = tested on: human embryonic kidney cells (HEK-293T); test: MTT cytotoxic activity assay, HEK-293T healthy cells, 72 h; assay type: cell-based; details: HEK-293T healthy cell line
Description: as §1
To determine whether all of the prepared substances had selectivity for healthy cells, the compounds were tested against HEK-293T cells at the same concentrations as those applied to cancer cells. […] Changes in the cell viability ratio depending on concentrations of the tested compounds (1–18) and cisplatin are given below (Figure 3).
as §2

[4] = Homo sapiens, PC-3, PC3 cell line

Structure (SMILES) | IC50 ([1]; PC3 cell line) [µM] | IC50 [2] [µM] | IC50 [1, 4] [µM] | IC50 ([2]; Homo sapiens) [µM] | IC50 [3] [µM] | melting point [°C]
N.N.[Cl][Pt][Cl] [cisplatin, reference compound] | 8.8 ± 0.51 | 26.7 ± 2.78 | – | – | – | –
O=C(NN=Cc1cccc(OS(=O)(=O)c2ccc(C(F)(F)F)cc2)c1)c1ccncc1 [Compound 11] | – | – | 80.1 ± 4.59 | 144 ± 4.18 | 245 ± 5.79 | 189 to 190
O=C(N/N=C/c1ccc(OS(=O)(=O)c2ccc(C(F)(F)F)cc2)cc1)c1ccncc1 [Compound 12] | – | – | > 300 | > 300 | > 300 | 208 to 209
COc1cccc(C=NNC(=O)c2ccncc2)c1OS(=O)(=O)c1ccc(C(F)(F)F)cc1 [Compound 13] | – | – | 214 ± 6.48 | 78.8 ± 3.15 | > 300 | 198 to 199
O=C(NN=Cc1ccccc1OS(=O)(=O)c1ccc(C(F)(F)F)cc1)c1ccncc1 [Compound 10] | – | – | 139 ± 5.82 | 17.9 ± 0.51 | 52.2 ± 3.52 | –
O=Cc1c(OS(=O)(=O)c2ccc(C(F)(F)F)cc2)ccc2ccccc12 [Compound 9] | – | – | 14.8 ± 1.03 | 17.6 ± 0.62 | 34.7 ± 2.21 | 129 to 131
COc1ccc(C=O)cc1OS(=O)(=O)c1ccc(C(F)(F)F)cc1 [Compound 6] | – | – | 16 ± 1.71 | 17.8 ± 0.53 | 91 ± 2.26 | –
COc1cc(C=O)ccc1OS(=O)(=O)c1ccc(C(F)(F)F)cc1 [Compound 7] | – | – | 71.6 ± 3.46 | 74 ± 4.34 | 110 ± 5.97 | 112 to 113
O=C(NN=Cc1c(OS(=O)(=O)c2ccc(C(F)(F)F)cc2)ccc2ccccc12)c1ccncc1 [Compound 18] | – | – | 17.05 ± 0.09 | 37.4 ± 4.63 | 15.75 ± 0.11 | –
O=Cc1ccccc1OS(=O)(=O)c1ccc(C(F)(F)F)cc1 [Compound 1] | – | – | 14.3 ± 1.87 | 22.5 ± 2.6 | 19.5 ± 1.57 | 83 to 84
CCN(CC)c1ccc(C=NNC(=O)c2ccncc2)c(OS(=O)(=O)c2ccc(C(F)(F)F)cc2)c1 [Compound 17] | – | – | 57.6 ± 1.83 | 110 ± 5.09 | 132 ± 5.46 | 141 to 142
COc1ccc(C=NNC(=O)c2ccncc2)c(OS(=O)(=O)c2ccc(C(F)(F)F)cc2)c1 [Compound 14] | – | – | 16.5 ± 1.54 | 28.4 ± 2.81 | 26.6 ± 2.62 | 180 to 181
O=Cc1ccc(OS(=O)(=O)c2ccc(C(F)(F)F)cc2)cc1 [Compound 3] | – | – | 76.6 ± 3.55 | 115 ± 5.78 | 89.26 ± 0.17 | 110 to 111
COc1cc(C=NNC(=O)c2ccncc2)ccc1OS(=O)(=O)c1ccc(C(F)(F)F)cc1 [Compound 16] | – | – | 121 ± 5.71 | 72.8 ± 3.13 | 183 ± 2.72 | 192 to 193
COc1cccc(C=O)c1OS(=O)(=O)c1ccc(C(F)(F)F)cc1 [Compound 4] | – | – | 10.3 ± 0.8 | 13.5 ± 1.64 | 35.3 ± 1.15 | –
CCN(CC)c1ccc(C=O)c(OS(=O)(=O)c2ccc(C(F)(F)F)cc2)c1 [Compound 8] | – | – | 28.8 ± 1.85 | 24.7 ± 1.9 | 40.8 ± 5.68 | 114 to 116
COc1ccc(C=NNC(=O)c2ccncc2)cc1OS(=O)(=O)c1ccc(C(F)(F)F)cc1 [Compound 15] | – | – | 97.4 ± 4.85 | 63.8 ± 5.32 | 166 ± 6.71 | –
COc1ccc(C=O)c(OS(=O)(=O)c2ccc(C(F)(F)F)cc2)c1 [Compound 5] | – | – | 11.2 ± 0.94 | 19.3 ± 2.71 | 38.6 ± 2.81 | –
O=Cc1cccc(OS(=O)(=O)c2ccc(C(F)(F)F)cc2)c1 [Compound 2] | – | – | 24.5 ± 2.09 | 41.2 ± 3.94 | 60 ± 4.81 | 79 to 80
